The results in this text go back to US10894784B2, “Heteroarylbenzimidazole compounds” (BAYER PHARMA AKTIENGESELLSCHAFT, priority 2015, dated 2021).

Structures are written as SMILES. Where two headings read alike, the source gives them in different places.

The assay concerns the target TBK1 (Homo sapiens (Human), UniProt Q9UHD2). As to the kind of experiment: TBK1 low ATP kinase assay (in vitro assay 1). The format is biochemical.
[1] abbreviates: in vitro assay 1, read-out: TBK1 low ATP kinase assay IC50.

Sequence of TBK1 (Q9UHD2 whole entry): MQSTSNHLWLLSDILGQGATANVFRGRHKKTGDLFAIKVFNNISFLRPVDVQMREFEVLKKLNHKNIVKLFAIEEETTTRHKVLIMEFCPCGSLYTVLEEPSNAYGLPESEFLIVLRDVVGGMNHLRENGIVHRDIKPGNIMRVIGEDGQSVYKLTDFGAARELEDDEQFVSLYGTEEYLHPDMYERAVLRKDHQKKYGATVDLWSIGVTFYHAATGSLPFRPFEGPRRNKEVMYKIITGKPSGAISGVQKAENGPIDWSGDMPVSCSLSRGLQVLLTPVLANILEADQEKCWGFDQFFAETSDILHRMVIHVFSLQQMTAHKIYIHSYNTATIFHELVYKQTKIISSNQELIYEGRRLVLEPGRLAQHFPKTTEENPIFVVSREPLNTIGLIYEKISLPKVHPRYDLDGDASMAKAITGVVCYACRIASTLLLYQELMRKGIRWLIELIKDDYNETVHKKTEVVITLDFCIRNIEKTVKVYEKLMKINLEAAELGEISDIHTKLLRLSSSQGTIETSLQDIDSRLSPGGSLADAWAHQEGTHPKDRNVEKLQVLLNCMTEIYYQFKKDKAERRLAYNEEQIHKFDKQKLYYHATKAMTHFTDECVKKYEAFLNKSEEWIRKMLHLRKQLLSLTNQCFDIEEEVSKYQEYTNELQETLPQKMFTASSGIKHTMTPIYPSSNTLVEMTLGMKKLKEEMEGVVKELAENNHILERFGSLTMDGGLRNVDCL

Consider `CNc1cc(-c2ccc3nc(Nc4cc(CN5CCN(C(=O)OC(C)(C)C)CC5)ccn4)[nH]c3c2)ncn1` [Example 150.01, tert-butyl 4-{[2-({6-[6-(methylamino)pyrimidin-4-yl]-1H-benzimidazol-2-yl}amino)pyridin-4-yl]methyl}piperazine-1-carboxylate], for which, under setting [1], the IC50 amounted to 15 nM. Same read-out and setting: with `O=C(CC(F)(F)F)N1CCN(Cc2ccnc(Nc3nc4ccc(-c5ccncc5C(F)(F)F)cc4[nH]3)c2)CC1` [Example 106.01, 3,3,3-trifluoro-1-(4-{[2-({6-[3-(trifluoromethyl)pyridin-4-yl]-1H-benzimidazol-2-yl}amino)pyridin-4-yl]methyl}piperazin-1-yl)propan-1-one] the figure was 1500 nM. As for `CCOc1c(-c2cnn(CC)c2)ccc2nc(Nc3cc(CN4CCN(C(=O)C5CC5)CC4)ccn3)[nH]c12` [Example 53.02, cyclopropyl{4-[(2-{[7-ethoxy-6-(1-ethyl-1H-pyrazol-4-yl)-1H-benzimidazol-2-yl]amino}pyridin-4-yl)methyl]piperazin-1-yl}methanone], the IC50 under setting [1] was 121 nM. The same measure, in the same setting: with `CC(c1ccnc(Nc2nc3ccc(-c4ccnn4C)cc3[nH]2)c1)N1CCN(C(=O)C2CC2)CC1` (single isomer, unassigned) [Example 123.03, cyclopropyl{4-[(1R or 1S)-1-(2-{[6-(1-methyl-1H-pyrazol-5-yl)-1H-benzimidazol-2-yl]amino}pyridin-4-yl)ethyl]piperazin-1-yl}methanone] the figure was 26 nM. Still for that read-out and setting: with `COc1c(C)ncnc1-c1ccc2nc(Nc3cc(C(C)N4CCN(C(=O)CC(F)(F)F)CC4)ccn3)[nH]c2c1` (single isomer, unassigned) [Example 83.03, 3,3,3-trifluoro-1-{4-[(1R or 1S)-1-(2-{[6-(5-methoxy-6-methylpyrimidin-4-yl)-1H-benzimidazol-2-yl]amino}pyridin-4-yl)ethyl]piperazin-1-yl}propan-1-one] the figure was 2.2 nM; with `CCn1cc(-c2ccc3nc(Nc4cc(CN5CCN(C(=O)CC(F)(F)F)CC5)ccn4)[nH]c3c2)cn1` [Example 38.02, 1-{4-[(2-{[6-(1-ethyl-1H-pyrazol-4-yl)-1H-benzimidazol-2-yl]amino}pyridin-4-yl)methyl]piperazin-1-yl}-3,3,3-trifluoropropan-1-one], 50.4 nM. For `CC(c1ccnc(Nc2nc3ccc(-c4cc(OCC(F)(F)F)ncn4)cc3[nH]2)c1)N1CCN(C(=O)C2(C(F)(F)F)CC2)CC1` (single isomer, unassigned) [Example 119.04, (4-{(1R or 1S)-1-[2-({6-[6-(2,2,2-trifluoroethoxy)pyrimidin-4-yl]-1H-benzimidazol-2-yl}amino)pyridin-4-yl]ethyl}piperazin-1-yl)[1-(trifluoromethyl)cyclopropyl]methanone], under setting [1], the 50% inhibitory concentration (IC50) was 10.9 nM. Take `CC(C)Cc1noc(-c2ccc3nc(Nc4cc(CN5CCN(C(=O)CC(F)(F)F)CC5)ccn4)[nH]c3c2)n1` [Example 18.01, 3,3,3-trifluoro-1-(4-{[2-({6-[3-(2-methylpropyl)-1,2,4-oxadiazol-5-yl]-1H-benzimidazol-2-yl}amino)pyridin-4-yl]methyl}piperazin-1-yl)propan-1-one]: the 50% inhibitory concentration (IC50) under setting [1] was found to be 72.4 nM. In the case of `O=C(CC(F)(F)F)N1CCN(Cc2ccnc(Nc3nc4ccc(-c5ccsc5Cl)cc4[nH]3)c2)CC1` [Example 175.02, 1-{4-[(2-{[6-(2-chlorothiophen-3-yl)-1H-benzimidazol-2-yl]amino}pyridin-4-yl)methyl]piperazin-1-yl}-3,3,3-trifluoropropan-1-one], the IC50 under setting [1] came to 353 nM. As to `Cc1noc(-c2ccc3nc(Nc4cc(CN5CCN(c6ccccn6)CC5)ccn4)[nH]c3c2)n1` [Example 101.15, 6-(3-methyl-1,2,4-oxadiazol-5-yl)-N-(4-{[4-(pyridin-2-yl)piperazin-1-yl]methyl}pyridin-2-yl)-1H-benzimidazol-2-amine], under setting [1], the IC50 was found to be 210 nM. On the same count and under the same terms, with `CC(C)(C)OC(=O)N1CCN(Cc2ccnc(Nc3nc4ccc(-c5ncnc6c5COC6)cc4[nH]3)c2)CC1` [Example 182.01, tert-butyl 4-[(2-{[6-(5,7-dihydrofuro[3,4-d]pyrimidin-4-yl)-1H-benzimidazol-2-yl]amino}pyridin-4-yl)methyl]piperazine-1-carboxylate] the figure was 275 nM; with `O=C(C1CC1)N1CCN(Cc2ccnc(Nc3nc4ccc(-c5nc(C6CC6)no5)cc4[nH]3)c2)CC1` [Example 17.05, cyclopropyl{4-[(2-{[6-(3-cyclopropyl-1,2,4-oxadiazol-5-yl)-1H-benzimidazol-2-yl]amino}pyridin-4-yl)methyl]piperazin-1-yl}methanone], 38.2 nM; with `CC(c1ccnc(Nc2nc3ccc(-c4cnn(CC5CC5(F)F)c4)cc3[nH]2)c1)N1CCN(C(=O)CC(F)(F)F)CC1` (single isomer, unassigned) [Example 55.02, 1-{4-[(1R or 1S)-1-(2-{[6-(1-{[(1RS)-2,2-difluorocyclopropyl]methyl}-1H-pyrazol-4-yl)-1H-benzimidazol-2-yl]amino}pyridin-4-yl)ethyl]piperazin-1-yl}-3,3,3-trifluoropropan-1-one], 1.06 nM. On to `O=C(C1CC1)N1CCN(Cc2ccnc(Nc3nc4ccc(-c5ncccn5)cc4[nH]3)c2)CC1` [Example 180.03, cyclopropyl{4-[(2-{[6-(pyrimidin-2-yl)-1H-benzimidazol-2-yl]amino}pyridin-4-yl)methyl]piperazin-1-yl}methanone], for which the IC50 under setting [1] turned out to be 364 nM. Same read-out and setting: with `CCOc1ncnc(-c2ccc3nc(Nc4cc(CN5CCN(C(=O)CC(F)(F)F)CC5)ccn4)[nH]c3c2)c1OC` [Example 167.02, 1-{4-[(2-{[6-(6-ethoxy-5-methoxypyrimidin-4-yl)-1H-benzimidazol-2-yl]amino}pyridin-4-yl)methyl]piperazin-1-yl}-3,3,3-trifluoropropan-1-one] the figure was 35 nM.

For the compound `CC(c1ccnc(Nc2nc3ccc(-c4cc(N(C)C)ncn4)cc3[nH]2)c1)N1CCN(C(=O)CC(F)(F)F)CC1` (single isomer, unassigned) [Example 100.01, 1-(4-{(1R or 1S)-1-[2-({6-[6-(dimethylamino)pyrimidin-4-yl]-1H-benzimidazol-2-yl}amino)pyridin-4-yl]ethyl}piperazin-1-yl)-3,3,3-trifluoropropan-1-one], under “TBK1 low ATP kinase assay IC50, in vitro assay 1”, the IC50 amounted to 1.5 nM. `CC(c1ccnc(Nc2nc3ccc(-c4cnn(CC5CC(F)(F)C5)c4)cc3[nH]2)c1)N1CCN(C(=O)CC(F)(F)F)CC1` (single isomer, unassigned) [Example 169.02, 1-{4-[(1R or 1S)-1-{2-[(6-{1-[(3,3-difluorocyclobutyl)methyl]-1H-pyrazol-4-yl}-1H-benzimidazol-2-yl)amino]pyridin-4-yl}ethyl]piperazin-1-yl}-3,3,3-trifluoropropan-1-one]: under setting [1], the 50% inhibitory concentration (IC50) turned out to be 11.6 nM. Regarding `CCc1cc(-c2ccc3nc(Nc4cc(CN5CCN(C(=O)C6CC6)CC5)ccn4)[nH]c3c2)ncn1` [Example 91.03, cyclopropyl{4-[(2-{[6-(6-ethylpyrimidin-4-yl)-1H-benzimidazol-2-yl]amino}pyridin-4-yl)methyl]piperazin-1-yl}methanone], the IC50 under setting [1] is 13 nM.

Take `COc1c(NCC2CC2)ncnc1-c1ccc2nc(Nc3cc(CN4CCN(C(=O)OC(C)(C)C)CC4)ccn3)[nH]c2c1` [Example 109.01.01, tert-butyl 4-({2-[(6-{6-[(cyclopropylmethyl)amino]-5-methoxypyrimidin-4-yl}-1H-benzimidazol-2-yl)amino]pyridin-4-yl}methyl)piperazine-1-carboxylate]: the half-inhibitory concentration (IC50) under setting [1] worked out at 9.2 nM. On the same count and under the same terms, with `COc1cnccc1-c1ccc2nc(Nc3cc(CN4CCN(C(=O)CC(F)(F)F)CC4)ccn3)[nH]c2c1OCC(C)C` [Example 50.01, 3,3,3-trifluoro-1-{4-[(2-{[6-(3-methoxypyridin-4-yl)-7-(2-methylpropoxy)-1H-benzimidazol-2-yl]amino}pyridin-4-yl)methyl]piperazin-1-yl}propan-1-one] the figure was 499 nM; with `CC(c1ccnc(Nc2nc3ccc(-c4cnn(CC5CC5)c4)c(Cl)c3[nH]2)c1)N1CCN(C(=O)CC(F)(F)F)CC1` (single isomer, unassigned) [Example 122.02, 1-(4-{(1R or 1S)-1-[2-({7-chloro-6-[1-(cyclopropylmethyl)-1H-pyrazol-4-yl]-1H-benzimidazol-2-yl}amino)pyridin-4-yl]ethyl}piperazin-1-yl)-3,3,3-trifluoropropan-1-one], 1.2 nM. On the same count and under the same terms, with `CN(C)c1cc(-c2ccc3nc(Nc4cc(CN5CCN(C(=O)OC(C)(C)C)CC5)ccn4)[nH]c3c2)ccn1` [Example 135.01, tert-butyl 4-{[2-({6-[2-(dimethylamino)pyridin-4-yl]-1H-benzimidazol-2-yl}amino)pyridin-4-yl]methyl}piperazine-1-carboxylate] the figure was 71 nM; with `O=C(C1CC1)N1CCN(Cc2ccnc(Nc3nc4ccc(-c5cc(NCC6CC6)ncn5)cc4[nH]3)c2)CC1` [Example 142.03, cyclopropyl[4-({2-[(6-{6-[(cyclopropylmethyl)amino]pyrimidin-4-yl}-1H-benzimidazol-2-yl)amino]pyridin-4-yl}methyl)piperazin-1-yl]methanone], 3 nM; with `O=C(C1CC1)N1CCN(Cc2ccnc(Nc3nc4ccc(-c5ccnc(C(F)F)c5)cc4[nH]3)c2)CC1` [Example 139.03, cyclopropyl(4-{[2-({6-[2-(difluoromethyl)pyridin-4-yl]-1H-benzimidazol-2-yl}amino)pyridin-4-yl]methyl}piperazin-1-yl)methanone], 9.7 nM.

With `CC(C)Nc1cc(-c2ccc3nc(Nc4cc(CN5CCN(C(=O)OC(C)(C)C)CC5)ccn4)[nH]c3c2)ncn1` [Example 154.01, tert-butyl 4-{[2-({6-[6-(propan-2-ylamino)pyrimidin-4-yl]-1H-benzimidazol-2-yl}amino)pyridin-4-yl]methyl}piperazine-1-carboxylate], the IC50 under setting [1] was 4.2 nM. The same measure, in the same setting: with `COc1c(C)ncnc1-c1ccc2nc(Nc3cc(C(C)N4CCN(C(=O)C5CC5)CC4)ccn3)[nH]c2c1` (single isomer, unassigned) [Example 83.04, cyclopropyl{4-[(1R or 1S)-1-(2-{[6-(5-methoxy-6-methylpyrimidin-4-yl)-1H-benzimidazol-2-yl]amino}pyridin-4-yl)ethyl]piperazin-1-yl}methanone] the figure was 1.5 nM.
